From patent publication US11970542B2, “Bispecific antibodies specific for treating hematological malignancies” (FRED HUTCHINSON CANCER CENTER, priority 2017, dated 2024)

Assays:
[1] = test system: surface CD38 on three multiple myeloma cells lines; test: Antibody Binding Capacity assay (QuantiBrite), CD38 molecules; assay type: cell-based, human; settings: 65-72 hours treatment
Protocol: FIG. 14. Antibody Binding Capacity assay (QuantiBrite, BD Biosciences) was used according to manufacturer instructions to measure the absolute number of CD38 molecules on the self-surface and accessible to antibody binding following 65-72 hours treatment of ATRA on three multiple myeloma cells lines.

[2] = test system: CD38 receptor expression in MM cell lines (U266, H929 and L363); test: ATRA effect on CD38 receptor expression in vitro; assay type: cell-based, human
From the text: FIG. 12. […] These studies generated data to refine the process of manipulating CD38 receptor density for the purpose of increasing targeted delivery of radiolabeled DOTA-biotin after CD38 tumor cell pretargeting.

[3] = test system: surface BCMA on MM cell lines (RPMI8226, U266B1, MM1.R, H929) and primary MM samples; test: Effect of GSI on BCMA expression, flow cytometry; assay type: cell-based, human
From the text: FIGS. 11A-11D. Dose dependent effect of the gamma secretase inhibitor, R04929097, on BCMA expression on 4 MM cell lines (11A, 11B) and 7 primary MM samples (11C, 11D). (11A) Surface BCMA expression by MM.1R cells cultured with the indicated concentrations of R04929097; staining with anti-BCMA antibody (black lines) compared to isotype control (grey line). (11B) Fold-change in surface BCMA expression by MM cell lines when cultured with the indicated concentrations of R04929097; fold change indicated relative to untreated MM cells of the same line. (11C) Surface BCMA expression by primary patient MM cells cultured with the indicated concentrations of R04929097. Staining was as described in regard to FIG. 11A. (11D) Fold change in BCMA on primary myeloma cells (n=7) cultured with vary amounts of GSI for […]. Primary and cell lines were cultured at 0.5×10^6 cells/mL. Fold change in BCMA is defined as Treated (MFIBCMA-MFIiso)/Control (MFIBCMA-MFIiso). Data is representative of 3 independent experiments with T cells derived from different donors.
The effect of GSI on BCMA expression was evaluated by incubating four MM cell lines (RPMI8226, U266B1, MM1.R, and H929) and primary MM samples in media containing 0 (DMSO), 0.01, 0.1, and 1.0 μM of GSI and measuring surface BCMA at 5 hr. […] These concentrations are 3-30 fold below the serum levels that are achieved by well tolerated oral dosing regimens of GSI in phase 1 trials in cancer patients.

[4] = test system: surface BCMA on three multiple myeloma cells lines; test: Antibody Binding Capacity assay (QuantiBrite), BCMA molecules; assay type: cell-based, human; settings: 5 μM, 17 hours incubation
Protocol: FIG. 13. Antibody Binding Capacity assay (QuantiBrite, Cat. No. 340495, BD Biosciences) was used according to manufacturer instructions to measure the absolute number of BCMA molecules on the self-surface and accessible to antibody binding following 17 hours incubation in the presence or absence of 5 μM gamma secretase inhibitor (R04929097) on three multiple myeloma cells lines.

[5] = Blood clearance time course of BCMA bispecific with or without GSI; set-up: species or system mice; settings: mouse, in vivo
From the text: FIG. 15. To ensure our clearing agent was able to effectively clear unbound agent from the blood stream, we conducted a time course experiment to test the impact of the clearing agent on the BCMA bispecific in the presence or absence of GSI. The percent of the injected dose (% ID) was monitored in the blood during a time course experiment by measuring the relative amount of Yttrium^90 in blood samples obtained from mice.

blood clearance of BCMA bispecific fusion in combination with GSI [5] | SMILES | number of CD38 molecules on the cell surface [1] | CD38 receptor expression ([2]; U266 MM line, solubilized ATRA) | CD38 receptor expression ([2]; three MM cell lines (U266, H929 and L363)) | effect on cell viability ([3]; 0.01, 0.1, and 1.0 μM, 5 hr) | concentration of maximal increase in MFI of BCMA staining ([3]; 0.01-1.0 μM tested, 5 hr) [µM] | soluble BCMA levels ([3]; 0.1 and 1.0 μM) | change in MFI of BCMA staining ([3]; all 4 cell lines and primary MM cells, 5 hr) | time to upregulation of BCMA after GSI exposure ([3]; time course) [h] | number of BCMA molecules on the cell surface [4]
– | CC1=C(/C=C/C(C)=C/C=C/C(C)=C/C(=O)O)C(C)(C)CCC1 [ATRA, all-trans retinoic acid] | upregulates surface CD38 target expression | striking dose dependent increase in expression | dose dependent increase | – | – | – | – | – | –
further facilitated blood clearance | CC(C)(C(=O)NCC(F)(F)C(F)(F)F)C(=O)N[C@@H]1C(=O)Nc2ccccc2-c2ccccc21 [R04929097] | – | – | – | did not affect cell viability | 1.0 | decline in soluble BCMA levels | marked increase | ≤ 1 | upregulates surface BCMA target expression
